Legend:
[1] = molecular target: T1, CckA 70–378 (ΔCA-ΔRD) (Caulobacter vibrioides, UniProt A0A0H3C8Q4); assay: SPR (Biacore T200, CckA variant amine-coupled to CM5 chip); type: binding; conditions: 50 mM HEPES pH 8, 200 mM KCl, 5 mM MgCl2, 25 °C
T1 construct: residues 70-378 (PAS-A, PAS-B, DHp), His-tagged, E. coli, Ni-NTA; immobilised on SPR chip
T1 sequence (A0A0H3C8Q4 70-378): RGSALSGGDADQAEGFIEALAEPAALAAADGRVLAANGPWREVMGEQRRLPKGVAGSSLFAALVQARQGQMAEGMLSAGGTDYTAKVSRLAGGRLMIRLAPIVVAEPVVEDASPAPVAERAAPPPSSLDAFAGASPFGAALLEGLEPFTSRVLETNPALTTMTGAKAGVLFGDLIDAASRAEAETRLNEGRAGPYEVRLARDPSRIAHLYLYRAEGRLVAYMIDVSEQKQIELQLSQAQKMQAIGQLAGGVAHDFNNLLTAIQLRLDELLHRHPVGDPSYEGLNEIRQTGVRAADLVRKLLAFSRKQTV

[2] = molecular target: T2, CckA 70–691 (WT) (Caulobacter vibrioides, UniProt A0A0H3C8Q4); assay: autophosphorylation with [gamma-32P]ATP, nitrocellulose capture, phosphorimaging; type: biochemical
T2 construct: cytosolic region 70-691 (PAS-A, PAS-B, DHp, CA, RD), transmembrane helices removed, N-terminal His6 tag, E. coli, Ni-NTA
T2 sequence (A0A0H3C8Q4 70-691): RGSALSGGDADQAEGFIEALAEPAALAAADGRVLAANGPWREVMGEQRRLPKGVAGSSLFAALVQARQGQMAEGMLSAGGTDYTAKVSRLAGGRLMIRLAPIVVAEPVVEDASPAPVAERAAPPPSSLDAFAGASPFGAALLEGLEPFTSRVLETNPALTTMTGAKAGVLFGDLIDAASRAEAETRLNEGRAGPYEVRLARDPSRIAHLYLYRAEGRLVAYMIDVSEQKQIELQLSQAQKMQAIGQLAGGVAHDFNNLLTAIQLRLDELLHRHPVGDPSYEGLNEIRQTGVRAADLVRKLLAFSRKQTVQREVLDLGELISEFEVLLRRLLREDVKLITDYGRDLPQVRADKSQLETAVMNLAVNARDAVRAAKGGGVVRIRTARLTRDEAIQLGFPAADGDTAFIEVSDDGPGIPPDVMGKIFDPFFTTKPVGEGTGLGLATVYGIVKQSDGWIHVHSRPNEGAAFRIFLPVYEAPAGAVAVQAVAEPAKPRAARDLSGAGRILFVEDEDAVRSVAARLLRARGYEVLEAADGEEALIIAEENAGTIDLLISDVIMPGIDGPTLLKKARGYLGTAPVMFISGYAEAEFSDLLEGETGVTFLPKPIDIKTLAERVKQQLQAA

[3] = molecular target: T3, CckA 197–544 (ΔPAS-A-ΔRD) (Caulobacter vibrioides, UniProt A0A0H3C8Q4); assay: SPR (Biacore T200, CckA variant amine-coupled to CM5 chip); type: binding; conditions: 50 mM HEPES pH 8, 200 mM KCl, 5 mM MgCl2, 25 °C
T3 construct: residues 197-544 (PAS-B, DHp, CA), His-tagged, E. coli, Ni-NTA; immobilised on SPR chip
T3 sequence (A0A0H3C8Q4 197-544): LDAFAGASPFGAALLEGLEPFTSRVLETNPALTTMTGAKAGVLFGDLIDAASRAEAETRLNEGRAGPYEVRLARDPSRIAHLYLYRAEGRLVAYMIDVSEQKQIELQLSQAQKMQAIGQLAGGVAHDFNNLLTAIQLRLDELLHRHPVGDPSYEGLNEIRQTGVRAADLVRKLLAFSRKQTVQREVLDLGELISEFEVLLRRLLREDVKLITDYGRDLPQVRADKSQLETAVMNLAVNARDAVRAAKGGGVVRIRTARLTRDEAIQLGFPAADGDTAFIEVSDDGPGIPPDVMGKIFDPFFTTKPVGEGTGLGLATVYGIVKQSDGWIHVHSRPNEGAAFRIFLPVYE

[4] = molecular target: T4, CckA 70–544 (ΔRD) (Caulobacter vibrioides, UniProt A0A0H3C8Q4); assay: as above; type: binding; conditions: 50 mM HEPES pH 8, 200 mM KCl, 5 mM MgCl2, 25 °C
T4 construct: residues 70-544 (PAS-A, PAS-B, DHp, CA), receiver domain removed, His-tagged, E. coli, Ni-NTA; immobilised on SPR chip
T4 sequence (A0A0H3C8Q4 70-544): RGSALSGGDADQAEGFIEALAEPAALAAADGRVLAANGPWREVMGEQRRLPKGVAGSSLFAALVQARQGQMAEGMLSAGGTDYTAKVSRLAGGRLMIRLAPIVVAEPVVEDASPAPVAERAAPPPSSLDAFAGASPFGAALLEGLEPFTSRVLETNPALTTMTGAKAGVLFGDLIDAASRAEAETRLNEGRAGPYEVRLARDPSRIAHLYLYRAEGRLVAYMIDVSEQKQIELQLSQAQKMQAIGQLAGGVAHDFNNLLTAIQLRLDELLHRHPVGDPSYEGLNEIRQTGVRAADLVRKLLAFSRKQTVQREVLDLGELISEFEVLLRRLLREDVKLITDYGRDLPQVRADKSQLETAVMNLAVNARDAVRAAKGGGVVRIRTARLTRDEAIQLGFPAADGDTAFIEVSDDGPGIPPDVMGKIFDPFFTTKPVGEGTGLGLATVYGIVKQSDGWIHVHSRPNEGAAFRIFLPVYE

[5] = molecular target: T5, CckA 197–691 (ΔPAS-A) (Caulobacter vibrioides, UniProt A0A0H3C8Q4); assay: autophosphorylation with [gamma-32P]ATP, nitrocellulose capture, phosphorimaging; type: biochemical
T5 construct: residues 197-691 (PAS-B, DHp, CA, RD), His-tagged, E. coli, Ni-NTA
T5 sequence (A0A0H3C8Q4 197-691): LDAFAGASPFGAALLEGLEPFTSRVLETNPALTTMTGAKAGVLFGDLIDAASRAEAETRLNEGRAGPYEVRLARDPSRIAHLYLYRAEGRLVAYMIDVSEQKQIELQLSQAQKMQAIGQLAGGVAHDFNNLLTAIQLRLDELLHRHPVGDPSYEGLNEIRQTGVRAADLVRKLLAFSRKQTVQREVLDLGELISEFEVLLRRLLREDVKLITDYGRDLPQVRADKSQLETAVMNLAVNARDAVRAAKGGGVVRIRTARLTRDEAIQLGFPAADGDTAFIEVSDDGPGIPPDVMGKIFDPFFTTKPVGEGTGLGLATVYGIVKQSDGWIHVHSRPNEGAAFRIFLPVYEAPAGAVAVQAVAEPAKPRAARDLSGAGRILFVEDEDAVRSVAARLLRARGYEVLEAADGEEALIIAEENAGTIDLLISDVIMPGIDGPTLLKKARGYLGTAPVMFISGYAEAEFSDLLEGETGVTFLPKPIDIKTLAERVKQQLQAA

[6] = molecular target: T6, CckA 70–295 (ΔDHp-ΔCA-ΔRD) (Caulobacter vibrioides, UniProt A0A0H3C8Q4); assay: SPR (Biacore T200, CckA variant amine-coupled to CM5 chip); type: binding; conditions: 50 mM HEPES pH 8, 200 mM KCl, 5 mM MgCl2, 25 °C
T6 construct: residues 70-295 (PAS-A, PAS-B), pJAB41 in pET28b(+), His-tagged, E. coli, Ni-NTA; immobilised on SPR chip
T6 sequence (A0A0H3C8Q4 70-295): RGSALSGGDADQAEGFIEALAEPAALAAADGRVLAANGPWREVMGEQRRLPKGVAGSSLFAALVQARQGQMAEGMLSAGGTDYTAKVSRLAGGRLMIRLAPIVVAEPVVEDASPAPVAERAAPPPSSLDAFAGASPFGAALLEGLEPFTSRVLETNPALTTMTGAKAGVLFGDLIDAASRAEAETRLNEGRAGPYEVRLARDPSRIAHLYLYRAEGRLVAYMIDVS

IC50 [2]: 27 µM
IC50 [5]: 22 µM
Structure (SMILES): Nc1nc2c(ncn2[C@@H]2O[C@@H]3COP(=O)(O)O[C@H]4[C@@H](O)[C@H](n5cnc6c(=O)[nH]c(N)nc65)O[C@@H]4COP(=O)(O)O[C@H]3[C@H]2O)c(=O)[nH]1 [c-di-GMP]
SPR (Biacore T200, CckA variant amine-coupled to CM5 chip) [1]: removal of the ATP-binding CA domain resulted in a minor reduction in c-di-GMP binding
SPR (Biacore T200, CckA variant amine-coupled to CM5 chip) [3]: Each construct still displayed concentration dependence in response to c-di-GMP
SPR (Biacore T200, CckA variant amine-coupled to CM5 chip) [4]: The concentration-dependent response we observed demonstrates that c-di-GMP directly binds CckA
SPR (Biacore T200, CckA variant amine-coupled to CM5 chip) [6]: Each construct still displayed concentration dependence in response to c-di-GMP
